Counter-ions that a name gives are not always drawn. Like-named read-outs stand apart in the source and are kept apart here.
What was measured:
[1] = system: RAF dimers in HCT-116 cells; experiment: HCT-116 AlphaLISA SureFire pERK1/2 cellular assay (dimer); format: cell-based; conditions: Homo sapiens
Procedure, shortened: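 HCT-116 (KRAS G13D) cells, 30,000/well, pretreated 1 h with 1 μM Encorafenib to induce RAF dimers, washed, then dosed 1 h at 37° C with compound (10-point, top 10 μM, 1/2 log steps) in growth medium. pERK1/2 (T202/Y204) measured by AlphaLISA SureFire; absolute IC50 versus DMSO control.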

[2] = Plasma protein binding assay, human plasma (hPPB); format: in vitro ADME; conditions: 5 μM
Procedure, shortened: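 Equilibrium dialysis of 5 μM compound in previously frozen human or mouse plasma against phosphate buffer, 4 h at 37 °C. Both chambers quantified by LC-MS/MS; % free = (1−((PC−PF)/PC))×100.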

HCT-116 cells = experiment: HCT-116 CellTiter-Glo 3D cell proliferation assay; format: cell-based; conditions: Homo sapiens, HCT-116; HCT116 cells, 3D proliferation; read-out: 3D HCT116 pGI50 (converted)
Description: HCT-116 CellTiter-Glo 3D Cell Proliferation Assay
The human HCT-116 colorectal carcinoma cell line (ATCC CCL-247) endogenously expresses the KRAS^G13D mutation, which leads to enhanced survival and proliferative signaling. […] On the first day, HCT-116 cells were harvested, resuspended in growth medium (McCoys5A with Glutamax (Life Technologies 36600021) with 10% heat-inactivated fetal bovine serum (Sigma F9665)), and counted. Cells were plated in 100 μl per well in each well of a Corning 7007 96-well clear round bottom Ultra-Low Attachment plate (VWR 444-1020) to a final density of 1000 cells per well. Cells were seeded for pre- and post-treatment readouts. The cells were then incubated at 37° C. and 5% CO2 for 3 days (72 hours) to allow spheroid formation. After 72 hours, the plate seeded for a pre-treatment read was removed from the incubator to allow equilibration to room temperature for 30 minutes, before CellTitre-Glo® reagent was added to each well. The plates were incubated at room temperature for 5 minutes shaking at 300 rpm, followed by an incubation of 25 minutes on the benchtop before being read on the Envision reader (Perkin Elmer) as described below. On the same day, the cells plated for the post-treatment readout were dosed with compounds to produce a 9-point dose response, where the top concentration was 15 μM and following concentrations were at 1/2 log dilution intervals. These cells were subsequently incubated at 37° C. and 5% CO2 for another 4 days (96 hours). After 4 days, the plate was removed from the incubator to allow equilibration to room temperature for 30 minutes and treated with CellTitre Glo® reagent as stated above. […] The CellTitre Glo® reagent lyses the cells and contains luciferin and a luciferase (Ultra-Glo™ Recombinant Luciferase), which in the presence of ATP and oxygen can produce bioluminescence from luciferin. Therefore, plates were read on an EnVision reader (Perkin Elmer) and luminescence signals were recorded. Cell proliferation was determined on 4 days after dosing relative to the pre-treatment read. All data were analyzed using the Dotmatics or GraphPad Prism software packages. Inhibition of proliferation was assessed by determination of the GI50 value, which was defined as the concentration of compound required to decrease the level of cell proliferation by 50% when compared to DMSO control.

WiDr cells = experiment: WiDr CellTiter-Glo 3D cell proliferation assay; format: cell-based; conditions: Homo sapiens; WiDr cells, 3D proliferation; read-out: 3D WiDr pGI50 (converted)
[3] = HCT-116, HCT116 cells pre-dosed with 1 μM Encorafenib, 1 hr, read-out: pERK HCT116 dimer (1 hr) pIC50 (converted)
[4] = equilibrium dialysis 4 hours 37° C.
[5] = HCT-116, HCT116 cells, dimer, 1 hr, read-out: pERK HCT116 dimer (1 hr) plC50 (converted)
[6] = equilibrium dialysis 4 hours at 37° C.

SMILES	IC50 [1, 3]	hPPB (% free) [2, 4]	IC50 [1, 5]	hPPB (% free) [2, 6]	GI50 (HCT-116 cells)	GI50 (WiDr cells)	IC50 ([1]; HCT-116, 1 h, read-out: pERK HCT116 dimer (1 hr) pIC50 (converted))
O=C1CCc2c(Oc3ccc4c(c3)CC(c3nc5cc(C(F)(F)F)ncc5[nH]3)CO4)ccnc2N1 (racemic) [Compound 32]	398 nM	1.3 % free					
O=C(Nc1cc(Oc2ccc3c(c2)CC(c2nc(-c4ccccc4)c[nH]2)CO3)ccn1)C1CC1 (racemic) [Compound 136]			89.1 nM	0.2 % free	47.9 nM	170 nM	
O=C1CCc2c(Oc3ccc4c(c3)CC(c3nc(-c5ccnc(C(F)(F)F)c5)c[nH]3)CO4)ccnc2N1 (centres unmarked) [Compound 8, 5-[3-[4-[2-(trifluoromethyl)-4-pyridyl]-1H-imidazol-2-yl]chroman-6-yl]oxy-3,4-dihydro-1H-1,8-naphthyridin-2-one]	269 nM	1.0 % free	269 nM	1.0 % free	138 nM	191 nM	
O=C1CCc2c(Oc3ccc4c(c3)CC(c3nc(-c5cccc(C(F)(F)F)c5)c[nH]3)CO4)ccnc2N1 (centres unmarked) [Compound 12, 5-[3-[4-[3-(trifluoromethyl)phenyl]-1H-imidazol-2-yl]chroman-6-yl]oxy-3,4-dihydro-1H-1,8-naphthyridin-2-one]	229 nM	<0.1 % free					
COc1cc(-c2c[nH]c(C3COc4ccc(Oc5ccnc6c5CCC(=O)N6)cc4C3)n2)ccn1 (centres unmarked) [Compound 19, 5-[3-[4-(2-methoxy-4-pyridyl)-1H-imidazol-2-yl]chroman-6-yl]oxy-3,4-dihydro-1H-1,8-naphthyridin-2-one]	347 nM	1.9 % free					
O=C1CCc2c(Oc3ccc4c(c3)CC(c3nc5cc(C(F)(F)F)ccc5[nH]3)CO4)ccnc2N1 (centres unmarked) [Compound 22, 5-[3-[6-(trifluoromethyl)-1H-benzimidazol-2-yl]chroman-6-yl]oxy-3,4-dihydro-1H-1,8-naphthyridin-2-one]	155 nM	<0.1 % free					
O=C1CCc2c(Oc3ccc4c(c3)CC(c3nc5cc(F)c(F)cc5[nH]3)CO4)ccnc2N1 (centres unmarked) [Compound 23]	224 nM	0.5 % free					
N#Cc1ccc2[nH]c(C3COc4ccc(Oc5ccnc6c5CCC(=O)N6)cc4C3)nc2c1 (centres unmarked) [Compound 24]	155 nM	1.8 % free					
O=C1CCc2c(Oc3ccc4c(c3)CC(c3nc5cc(Cl)ccc5[nH]3)CO4)ccnc2N1 (centres unmarked) [Compound 25]	115 nM	0.3 % free					
CN(C)c1ccc2[nH]c(C3COc4ccc(Oc5ccnc6c5CCC(=O)N6)cc4C3)nc2c1 (centres unmarked) [Compound 26]	275 nM	0.7 % free					
Cc1cc2nc(C3COc4ccc(Oc5ccnc6c5CCC(=O)N6)cc4C3)[nH]c2cc1C (centres unmarked) [Compound 29]	219 nM	0.2 % free					
O=C1CCc2c(Oc3ccc4c(c3)CN(c3nc(-c5ccccc5)n[nH]3)CC4)ccnc2N1 [Compound 44, 5-[[2-(3-phenyl-1H-1,2,4-triazol-5-yl)-3,4-dihydro-1H-isoquinolin-7-yl]oxy]-3,4-dihydro-1H-1,8-naphthyridin-2-one hydrochloride]		0.3 % free					288 nM
O=C(Nc1cc(Oc2ccc3c(c2)CC(c2nc(-c4ccccc4)c[nH]2)CO3)ccn1)C1CC1 (centres unmarked) [Compound 45, N-[4-[3-(4-phenyl-1H-imidazol-2-yl)chroman-6-yl]oxy-2-pyridyl]cyclopropanecarboxamide]	89.1 nM	0.2 % free					
O=C1CCc2c(Oc3ccc4c(c3)CN(C(=O)Nc3ccc(C(F)(F)F)cc3)CC4)ccnc2N1 [Compound 47]	64.6 nM	0.7 % free					
O=C1CCc2c(Oc3ccc4c(c3)CN(C(=O)Nc3cccc(C(F)(F)F)c3)CC4)ccnc2N1 [Compound 50]	64.6 nM	1.2 % free					
O=C1CCc2c(Oc3ccc4c(c3)CC(c3nc(-c5ccnc(C(F)F)c5)c[nH]3)CO4)ccnc2N1 (centres unmarked) [Compound 101, 5-[3-[4-[2-(difluoromethyl)-4-pyridyl]-1H-imidazol-2-yl]chroman-6-yl]oxy-3,4-dihydro-1H-1,8-naphthyridin-2-one]			63.1 nM	1.6 % free	85.1 nM	309 nM	
O=C1CCc2c(Oc3ccc4c(c3)CC(c3nc(-c5cncc(C(F)(F)F)c5)c[nH]3)CO4)ccnc2N1 (centres unmarked) [Compound 103, 5-[3-[4-[5-(trifluoromethyl)-3-pyridyl]-1H-imidazol-2-yl]chroman-6-yl]oxy-3,4-dihydro-1H-1,8-naphthyridin-2-one]			107 nM	0.6 % free	288 nM	537 nM	
COc1cc(-c2c[nH]c(C3COc4ccc(Oc5ccnc6c5CCC(=O)N6)cc4C3)n2)ccn1 (centres unmarked) [Compound 104]			347 nM	1.9 % free	447 nM	1150 nM	
Cc1cc(-c2c[nH]c(C3COc4ccc(Oc5ccnc6c5CCC(=O)N6)cc4C3)n2)n(C(C)C)n1 (centres unmarked) [Compound 112, 5-[3-[4-(2-isopropyl-5-methyl-pyrazol-3-yl)-1H-imidazol-2-yl]chroman-6-yl]oxy-3,4-dihydro-1H-1,8-naphthyridin-2-one]			257 nM	1.4 % free			
CCc1cc(-c2c[nH]c(C3COc4ccc(Oc5ccnc6c5CCC(=O)N6)cc4C3)n2)n(C2CC2)n1 (centres unmarked) [Compound 113, 5-[3-[4-(2-cyclopropyl-5-ethyl-pyrazol-3-yl)-1H-imidazol-2-yl]chroman-6-yl]oxy-3,4-dihydro-1H-1,8-naphthyridin-2-one]			513 nM	0.6 % free			
Cc1cc(-c2c[nH]c(C3COc4ccc(Oc5ccnc6c5CCC(=O)N6)cc4C3)n2)n(C2CC2)n1 (centres unmarked) [Compound 114, 5-[3-[4-(2-cyclopropyl-5-methyl-pyrazol-3-yl)-1H-imidazol-2-yl]chroman-6-yl]oxy-3,4-dihydro-1H-1,8-naphthyridin-2-one]			363 nM	1.2 % free			
Cn1nc(C2CC2)cc1-c1c[nH]c(C2COc3ccc(Oc4ccnc5c4CCC(=O)N5)cc3C2)n1 (centres unmarked) [Compound 125, 5-[3-[4-(5-cyclopropyl-2-methyl-pyrazol-3-yl)-1H-imidazol-2-yl]chroman-6-yl]oxy-3,4-dihydro-1H-1,8-naphthyridin-2-one]			138 nM		1120 nM	15100 nM	
Cc1cc(-c2c[nH]c(C3COc4ccc(Oc5ccnc6c5CCC(=O)N6)cc4C3)n2)n(CC(F)(F)F)n1 (centres unmarked) [Compound 126, 5-[3-[4-[5-methyl-2-(2,2,2-trifluoroethyl)pyrazol-3-yl]-1H-imidazol-2-yl]chroman-6-yl]oxy-3,4-dihydro-1H-1,8-naphthyridin-2-one]			245 nM	1.0 % free		15100 nM	
O=C1CCc2c(Oc3ccc4c(c3)CC(c3nc(-c5ccc(C(F)(F)F)nc5)c[nH]3)CO4)ccnc2N1 (centres unmarked) [Compound 127, 5-[3-[4-[6-(trifluoromethyl)-3-pyridyl]-1H-imidazol-2-yl]chroman-6-yl]oxy-3,4-dihydro-1H-1,8-naphthyridin-2-one]			158 nM	0.6 % free			
O=C1CCc2c(Oc3ccc4c(c3)CC(c3nc(-c5cccnc5C(F)(F)F)c[nH]3)CO4)ccnc2N1 (centres unmarked) [Compound 128, 5-[3-[4-[2-(trifluoromethyl)-3-pyridyl]-1H-imidazol-2-yl]chroman-6-yl]oxy-3,4-dihydro-1H-1,8-naphthyridin-2-one]			263 nM	0.9 % free			
O=C(Nc1cc(Oc2ccc3c(c2)CC(c2nc(-c4ccccc4)c[nH]2)CO3)ccn1)C1(F)CC1 (centres unmarked) [Compound 138]			813 nM	<0.1 % free			
O=C(Nc1cc(Oc2ccc3c(c2)CC(c2nc(-c4ccccc4)c[nH]2)CO3)ccn1)C1CC(F)(F)C1 (centres unmarked) [Compound 139]			219 nM	<0.1 % free			
